For one data set, the target named is FXR-LBD (Homo sapiens (Human), UniProt Q96RI1). Nature of the data set: TR-FRET Farnesoid X Receptor Coactivator Assay. The conditions noted are these: TR-FRET farnesoid X receptor protein coactivator activity. In kind it is biochemical. How it is done:
Purchasing invitrogen PV4833 kits. The procedure refers to LanthaScreen™ TR-FRET Farnesoid X Receptor Coactivator Assay
First, the required amount of the compound was weighed and dissolved in 100% DMSO at the maximum concentration of 3000 μM. The solution at the maximum concentration was diluted by 3-fold serial dilution in DMSO to get 10 concentrations;
Second, the above prepared solutions of different concentrations were diluted to 50-fold with a buffer supplied with the kit, to 2× compound solution, followed by mixing and then 10 μL of the diluted solution was added to a 384 well plate;
Third, FXR-LBD was diluted with a buffer to 4× solution, and 5 μL of the diluent was added to the 384 well plate of second step;
Fourth, Fluorescein-SRC2-2 and Tb anti-GST antibody were diluted to 4× Fluorescein-SRC2-2 and Tb anti-GST antibody solution. Then two reagents were mixed together, and 5 μL of the mixture was added to the 384 well plate of third step;
Finally, the solution of the 384 well above was mixed uniformly by centrifuging, and then incubated at room temperature for 1 h. Then the TR-FRET Endpoint method was used for measuring the solution at wavelengths of 520 nm, 495 nm and 337 nm.
In general terms: In TR-FRET formats the signal depends on donor and acceptor labels being close together.

A short description of data set [1]: Pharmacokinetics test in SD rats. The conditions noted are these: rat, plasma, male SD rats; for Vd: read-out: Vss; for bioavailability: po 5 mg/kg vs iv 1 mg/kg. In kind it is in vivo. How it is done:
Example 22 Pharmacokinetics Test
Experimental animals: six healthy adult male SD rats (purchased from Hunan SJA Laboratory Animal Co. Ltd.) were divided into two groups, three rats in each group, and the two groups were given intravenous injection and oral administration respectively.
Drug preparation: a quantity of a compound of the present invention was weighed, and 5% DMSO, 10% Kolliphor HS15 and 85% saline (0.9%) were added to give target concentrations of the compound solution.
Administration and sample collection: animals were fasted for 12 h before administration, and fed at the time point of 3 hours after the administration. SD rats of one group were given intravenous injection (IV, 1 mg/kg) via hind legs and SD rats of the other group were given oral administration (PO, 5 mg/kg) respectively. Then blood was collected in the rat tail vein at the time point of 0, 0.083, 0.25, 0.5, 1, 2, 4, 6, 8, 24 h respectively, and the blood volume was about 200-400 μL/time point. After the collection of whole blood at each time point, the collected blood was set in K2EDTA anticoagulant tube, and the tube was placed in the incubator with ice packs. All samples were centrifuged for 5 min at 4° C. at 4600 r/min within 15 min. Plasma was separated and collected. The concentrations of different compounds in the plasma of the rats after administration were measured using LC/MS/MS method, and the pharmacokinetic parameters were calculated according to the curve of the drug concentration-time.

For data set [2], the target named is FXR ligand binding domain (LBD) (Homo sapiens (Human), UniProt Q96RI1). As to the kind of experiment: Mammalian one hybrid (M1H) GAL4 reporter gene assay in HEK293 cells. In kind it is cell-based. The following applies: GAL4 reporter gene test. From the text:
Mammalian one hybrid technology is also called chimeric receptor gene assay. Based on the GAL4 chimera receptor assay, the activity of compounds which mediated activation of FXR was detected by dual luciferase reporter assay. The methods were as follows: cDNA encoding the FXR ligand binding domain (LBD), the yeast GAL4 DNA binding domain (DBD) and the Renilla luciferase DNA were fused to construct a chimera expression plasmid pBIND-FXR (Promega). […] The plasmid pG5Luc (Promega) was used as the reporter plasmid, containing the GAL4 upstream activation sequence (UAS) and the Firefly luciferase receptor gene. All GAL4 reporter gene assays were done in HEK293 cells. Cells were cultured at 37° C., 5% CO2 under humidified conditions. […] The contents were mixed completely and incubated the mixtures for 15 minutes at room temperature. The volume of the transfection mixture was 2.5 μl/well. Trypsinized and diluted the cell slurry at a density of […] (100 μl/well for 96-well plate). Then added required volume of transfection mixture prepared previously into the cell slurry, and dispensed 100 μl/well of the cell slurry into the 96-well plate and incubated the plate for 24 hours at 37° C., 5% CO2 under humidified conditions. Compounds prediluted in complete medium were added into each well and then incubated at 37° C., 5% CO2 under humidified conditions for 18 hours. The firefly and renilla luciferase signal was assayed by Promega's Dual Luciferase Reporter Assay System.
The % Activation value was calculated by the following equation: Activation %=[(X−Min)/(Max−Min)]×100%. “X” is the “F/R” value from compounds. “F/R” means “Firefly/Renilla”. “Min” is the mean “F/R” value from no compound control. “Max” is the mean “F/R” value from reference compound control. Finally, the EC50 value of each compounds were calculated by GraphPrism 5.0.

Chain of FXR ligand binding domain (LBD) (Q96RI1 261-481): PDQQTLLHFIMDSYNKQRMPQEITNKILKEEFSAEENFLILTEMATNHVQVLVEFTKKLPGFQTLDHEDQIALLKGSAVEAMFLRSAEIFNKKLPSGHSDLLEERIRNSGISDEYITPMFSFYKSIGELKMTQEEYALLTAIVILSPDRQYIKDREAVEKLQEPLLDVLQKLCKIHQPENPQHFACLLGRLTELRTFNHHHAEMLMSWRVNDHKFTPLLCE
Chain of FXR-LBD (Q96RI1 262-486): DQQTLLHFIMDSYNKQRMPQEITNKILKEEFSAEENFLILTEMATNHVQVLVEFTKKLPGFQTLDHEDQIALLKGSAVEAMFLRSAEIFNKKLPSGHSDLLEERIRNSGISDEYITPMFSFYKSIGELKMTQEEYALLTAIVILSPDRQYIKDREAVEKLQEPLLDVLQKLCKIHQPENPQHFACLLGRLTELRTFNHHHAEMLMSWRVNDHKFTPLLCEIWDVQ

The molecule `O=C(O)c1ccc2c(c1)Oc1ccc(OCc3c(-c4c(Cl)cccc4Cl)noc3C3CC3)nc1C=C2F` [Example 1, 2-((5-cyclopropyl-3-(2,6-dichlorophenyl)isoxazol-4-yl)methoxy)-10-fluorobenzo[6,7]oxepino[3,2-b]pyridine-7-carboxylic acid] returned an EC50 at FXR-LBD of 49.3 nM. Also, in data set [1] (iv 1 mg/kg), the AUC(0-inf) was determined as 1540 ng·h/mL, the AUC(0-t) amounted to 1540 ng·h/mL, the highest level (Cmax) was 1890 ng/mL and the MRT inf came to 47.5 min. In data set [1] (iv 1 mg/kg), the Tmax stood at 4.98 min, the clearance worked out at 11.2 mL/min/kg, the half-life was 43.4 min and the Vd is 0.522 L/kg. In data set [1] (po 5 mg/kg), this molecule had an AUC(0-inf) of 4210 ng·h/mL, an AUC(0-t) of 4180 ng·h/mL, a Cmax of 2760 ng/mL and an MRT inf of 79.2 min. Further, in data set [1] (po 5 mg/kg), the Tmax came to 30 min and the half-life was 54.8 min. The molecule further came in with a bioavailability in data set [1] of 55%.
On to `O=C(O)c1ccc2c(c1)Oc1ccc(OCc3c(-c4c(Cl)cccc4Cl)noc3C3CC3)nc1C1CC21` (stereo not shown) [Example 3, 3-((5-cyclopropyl-3-(2,6-dichlorophenyl)isoxazol-4-yl)methoxy)-1a,10b-dihydro-1H-benzo[6,7]cyclopropa[4,5]oxepino[3,2-b]pyridine-8-carboxylic acid], for which the EC50 on FXR-LBD turned out to be 76.1 nM.
Same read-out and setting: to `O=C(O)c1cc(F)c2c(c1)Oc1ccc(OCc3c(-c4c(Cl)cccc4Cl)noc3C3CC3)nc1CC2` [Example 4, 2-((5-cyclopropyl-3-(2,6-dichlorophenyl)isoxazol-4-yl)methoxy)-9-fluoro-10,11-dihydrobenzo[6,7]oxepino[3,2-b]pyridine-7-carboxylic acid] belongs 60.4 nM.
In data set [1] (iv 1 mg/kg), `O=C(O)c1ccc2c(c1)Oc1ccc(OCc3c(-c4c(Cl)cccc4Cl)noc3C3CC3)nc1C(F)=C2` [Example 5, 2-((5-cyclopropyl-3-(2,6-dichlorophenyl)isoxazol-4-yl)methoxy)-11-fluorobenzo[6,7]oxepino[3,2-b]pyridine-7-carboxylic acid] registered an AUC(0-inf) of 1580 ng·h/mL, an AUC(0-t) of 1580 ng·h/mL, a Cmax of 3040 ng/mL and an MRT inf of 32.9 min. For the same molecule, in data set [1] (iv 1 mg/kg), the Tmax was 4.98 min, the clearance worked out at 10.6 mL/min/kg, the half-life is 40.9 min and the Vd was 0.344 L/kg. In data set [1] (po 5 mg/kg), the AUC(0-inf) came to 7480 ng·h/mL, the AUC(0-t) is 7450 ng·h/mL, the Cmax turned out to be 6430 ng/mL and the MRT inf came to 64.2 min. For the same molecule, in data set [1] (po 5 mg/kg), the Tmax turned out to be 30 min and the half-life was 50.3 min. In data set [1], the bioavailability was 95%.
`O=C(O)c1cc2c(cc1F)CCc1nc(OCc3c(-c4c(Cl)cccc4Cl)noc3C3CC3)ccc1O2` [Example 6, 2-((5-cyclopropyl-3-(2,6-dichlorophenyl)isoxazol-4-yl)methoxy)-8-fluoro-10,11-dihydrobenzo[6,7]oxepino[3,2-b]pyridine-7-carboxylic acid] showed an EC50 at FXR-LBD of 31 nM.
On to `O=C(O)c1ccc2c(c1)Oc1ccc(OCc3c(-c4c(Cl)cccc4Cl)noc3C3CC3)nc1C(C(F)(F)F)=C2` [Example 7, 2-((5-cyclopropyl-3-(2,6-dichlorophenyl)isoxazol-4-yl)methoxy)-11-(trifluoromethyl)benzo[6,7]oxepino[3,2-b]pyridine-7-carboxylic acid], for which the EC50 in data set [2] was 11 nM.
Consider `O=C(O)c1ccc2c(c1)Oc1ccc(OCc3c(-c4c(Cl)cccc4Cl)noc3C3CC3)nc1C(C(F)(F)F)C2` (stereo not shown) [Example 8, 2-((5-cyclopropyl-3-(2,6-dichlorophenyl)isoxazol-4-yl)methoxy)-11-(trifluoromethyl)-10,11-dihydrobenzo[6,7]oxepino[3,2-b]pyridine-7-carboxylic acid], for which the EC50 in data set [2] came out at 26 nM.
`O=C(O)c1ccc2c(c1)Oc1ccc(OCc3c(-c4c(Cl)cccc4Cl)noc3C3CC3)nc1C1(CC1)C2` [Example 9, 2-((5-cyclopropyl-3-(2,6-dichlorophenyl)isoxazol-4-yl)methoxy)-10H-spiro[benzo[6,7]oxepino[3,2-b]pyridine-11,1′-cyclopropane]-7-carboxylic acid] had an EC50 in data set [2] of 2 nM.
`O=C(O)c1ccc2c(c1)Oc1ccc(OCc3c(-c4c(Cl)cccc4Cl)noc3C3CC3)nc1C(F)(F)C2` [Example 10, 2-((5-cyclopropyl-3-(2,6-dichlorophenyl)isoxazol-4-yl)methoxy)-11,11-difluoro-10,11-dihydrobenzo[6,7]oxepino[3,2-b]pyridine-7-carboxylic acid]: in data set [2], a half-maximal effect (EC50) was put at 12 nM. For the same molecule, in data set [1] (iv 1 mg/kg), the AUC(0-inf) was 1330 ng·h/mL, the AUC(0-t) was found to be 1330 ng·h/mL, the Cmax is 3020 ng/mL and the MRT inf was 25.7 min. Moreover, in data set [1] (iv 1 mg/kg), the Tmax amounted to 4.98 min, the clearance came out at 12.6 mL/min/kg, the half-life is 47.6 min and the Vd is 0.322 L/kg. Moreover, in data set [1] (po 5 mg/kg), the AUC(0-inf) was 5840 ng·h/mL, the AUC(0-t) was found to be 5790 ng·h/mL, the Cmax worked out at 3760 ng/mL and the mean residence time (MRT inf) stood at 82.8 min. Also, in data set [1] (po 5 mg/kg), the Tmax amounted to 30 min and the half-life is 57.4 min. The same molecule had a bioavailability in data set [1] of 88%.
In data set [2], `O=C(O)c1ccc2c(c1)Oc1ccc(OCc3c(-c4c(Cl)cccc4Cl)noc3C3CC3)nc1C(F)(F)C2O` (stereo not shown) [Example 12, 2-((5-cyclopropyl-3-(2,6-dichlorophenyl)isoxazol-4-yl)methoxy)-11,11-difluoro-10-hydroxy-10,11-dihydrobenzo[6,7]oxepino[3,2-b]pyridine-7-carboxylic acid] returned an EC50 of 136 nM.
In turn, `CC1=Cc2ccc(C(=O)O)cc2Oc2ccc(OCc3c(C4CC4)cnn3-c3c(Cl)cccc3Cl)nc21` [Example 15, 2-((4-cyclopropyl-1-(2,6-dichlorophenyl)-1H-pyrazol-5-yl)methoxy)-11-methylbenzo[6,7]oxepino[3,2-b]pyridine-7-carboxylic acid] gave an EC50 in data set [2] of 13 nM.
`O=C(O)c1ccc2c(c1)Oc1ccc(OCc3c(-c4c(Cl)cccc4Cl)noc3C3CC3)nc1C(C1CC1)=C2` [Example 16, 11-cyclopropyl-2-((5-cyclopropyl-3-(2,6-dichlorophenyl)isoxazol-4-yl)methoxy)benzo[6,7]oxepino[3,2-b]pyridine-7-carboxylic acid] had an EC50 in data set [2] of 5 nM.
Still for that read-out and setting: then `O=C(O)c1ccc2c(c1)Oc1ccc(OCc3c(-c4c(Cl)cccc4Cl)noc3C3CC3)nc1C(C1CC1)C2` (stereo not shown) [Example 17, 11-cyclopropyl-2-((5-cyclopropyl-3-(2,6-dichlorophenyl)isoxazol-4-yl)methoxy)-10,11-dihydrobenzo[6,7]oxepino[3,2-b]pyridine-7-carboxylic acid], with 65 nM.
The same measure, in the same setting: to `CC1=Cc2nc(OCc3c(-c4c(Cl)cccc4Cl)noc3C3CC3)ccc2Oc2cc(C(=O)O)ccc21` [Example 18, 2-((5-cyclopropyl-3-(2,6-dichlorophenyl)isoxazol-4-yl)methoxy)-10-methylbenzo[6,7]oxepino[3,2-b]pyridine-7-carboxylic acid] belongs 93 nM.

A word on the EC50: it is the concentration giving half of the maximal effect. A word on the AUC(0-inf): it is the area under the concentration-time curve extrapolated to infinity. As a reminder, the AUC(0-t) is exposure summed from dosing to a finite time, without extrapolation to infinity. A word on the Cmax: it is the highest concentration seen after dosing. The MRT inf is the average time that molecules of a dose stay in the body. Usually Tmax stands for the time from dosing to the highest level. The clearance is the rate of elimination divided by the concentration. One may read the half-life as how long it takes for the measured level to halve. Lower therefore signals fast loss. Usually bioavailability stands for dose-corrected exposure relative to a reference, in per cent. The low end stands for little systemic uptake, the high end for much systemic uptake.
